Experimental data as given in patent EP4782450A1, “NOVEL SKELETAL DERIVATIVE EFFECTIVE FOR HER2 MUTATION, AND PHARMACEUTICAL COMPOSITION COMPRISING SAME” (Hanmi Pharm. Co., Ltd., priority 2023, dated 2025).
Like-named read-outs stand apart in the source and are kept apart here.

Assays:
Ba/F3 HER2 A775insYVMA = assay: Growth inhibition of Ba/F3 cells engineered to overexpress HER2 A775_G776insYVMA (CellTiter-Glo luminescence); type: cell-based; settings: concentrations 1000 to 0.32 nM, read-out: Ba/F3 HER2^YVMA GI50 class
How it was run: (§1)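 Ba/F3 cells overexpressing HER2 A775_G776insYVMA (1000–0.32 nM) or wild-type EGFR (10000–8 nM) treated 72 h at 37°C in RPMI/10% FBS. Viability by CellTiter-Glo luminescence; GI50 by nonlinear regression with untreated growth set at 100%.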

[1] = test system: wild-type EGFR overexpressing Ba/F3 cells; assay: Growth inhibition of Ba/F3 cells engineered to overexpress wild-type EGFR (CellTiter-Glo luminescence); type: cell-based; settings: concentrations 10000 to 8 nM, read-out: Ba/F3 EGFR^WT GI50 class
How it was run: as §1

GI50 (Ba/F3 HER2 A775insYVMA; Mus musculus, BaF3, 72 hours) [nM]	GI50 ([1]; Mus musculus, BaF3, 72 hours) [nM]	GI50 (Ba/F3 HER2 A775insYVMA; 72 hours) [nM]	GI50 ([1]; 72 hours) [nM]	Molecule
< 100	100 to 1000	–	–	C=CC(=O)N(C)CCOc1ccc2ncnc(Nc3ccc(Oc4ccn5ncnc5c4)c(C)c3)c2n1 [Example 3, N-(2-((4-((4-([1,2,4]triazolo[1,5-a]pyridin-7-yloxy)-3-methylphenyl)amino)pyrido[3,2-d]pyrimidin-6-yl)oxy)ethyl)-N-methylacrylamide]
100 to 1000	100 to 1000	–	–	C=CC(=O)N(C)CC#Cc1ncc2ncnc(Nc3ccc(Oc4ccn5ncnc5c4)c(C)c3)c2n1 [Example 69, N-(3-(8-((4-([1,2,4]triazolo[1,5-a]pyridin-7-yloxy)-3-methylphenyl)amino)pyrimido[5,4-d]pyrimidin-2-yl)prop-2-yn-1-yl)-N-methylacrylamide]
< 100	> 5000	–	–	C=CC(=O)N(C)C/C=C/c1ccc2ncnc(Nc3cc(C)c(Oc4ccc5c(c4)ncn5C)cc3OC)c2n1 [Example 54, (E)-N-(3-(4-((2-methoxy-5-methyl-4-((1-methyl-1H-benzo[d]imidazol-5-yl)oxy)phenyl)amino)pyrido[3,2-d]pyrimidin-6-yl)allyl)-N-methylacrylamide]
< 100	< 100	–	–	C=CC(=O)N1CCC[C@@H]1C#Cc1ncc2ncnc(Nc3ccc(Oc4ccn5ncnc5c4)c(C)c3)c2n1 [Example 83, (R)-1-(2-((8-((4-([1,2,4]triazolo[1,5-a]pyridin-7-yloxy)-3-methylphenyl)amino)pyrimido[5,4-d]pyrimidin-2-yl)ethynyl)pyrrolidin-1-yl)prop-2-en-1-one]
100 to 1000	1000 to 5000	–	–	C=CC(=O)N(C)CCN(C)c1ccc2ncnc(Nc3ccc(Oc4ccn5ncnc5c4)c(C)c3)c2n1 [Example 13, N-(2-((4-((4-([1,2,4]triazolo[1,5-a]pyridin-7-yloxy)-3-methylphenyl)amino)pyrido[3,2-d]pyrimidin-6-yl)(methyl)amino)ethyl)-N-methylacrylamide]
–	–	100 to 1000	1000 to 5000	N-(2-((4-((4-([1,2,4]triazolo[1,5-a]pyridin-7-yloxy)-3-methylphenyl)amino)pyrido[3,2-d]pyrimidin-6-yl)amino)ethyl)-N-methylacrylamide [Example 11]
< 100	100 to 1000	–	–	C=CC(=O)N1CCCC[C@@H]1C#Cc1ccc2ncnc(Nc3ccc(Oc4ccn5ncnc5c4)c(C)c3)c2c1 [Example 76, (R)-1-(2-((4-((4-([1,2,4]triazolo[1,5-a]pyridin-7-yloxy)-3-methylphenyl)amino)quinazolin-6-yl)ethynyl)piperidin-1-yl)prop-2-en-1-one]
< 100	1000 to 5000	–	–	C=CC(=O)N(C)C/C=C/c1ccc2ncnc(Nc3ccc(Oc4cnc5c(c4)ncn5C)c(C)c3)c2n1 [Example 43, (E)-N-methyl-N-(3-(4-((3-methyl-4-((3-methyl-3H-imidazo[4,5-b]pyridin-6-yl)oxy)phenyl)amino)pyrido[3,2-d]pyrimidin-6-yl)allyl)acrylamide]
100 to 1000	> 5000	–	–	C=CC(=O)N(C)CCN(C)c1ncc2ncnc(Nc3ccc(Oc4ccc5c(c4)ncn5C)c(C)c3)c2n1 [Example 19, N-methyl-N-(2-(methyl(8-((3-methyl-4-((1-methyl-1H-benzo[d]imidazol-5-yl)oxy)phenyl)amino)pyrimido[5,4-d]pyrimidin-2-yl)amino)ethyl)acrylamide]
< 100	1000 to 5000	–	–	C=CC(=O)N(C)CCNc1ccc2ncnc(Nc3ccc(Oc4ccc5c(c4)ncn5C)c(C)c3)c2n1 [Example 15, N-methyl-N-(2-((4-((3-methyl-4-((1-methyl-1H-benzo[d]imidazol-5-yl)oxy)phenyl)amino)pyrido[3,2-d]pyrimidin-6-yl)amino)ethyl)acrylamide]
< 100	> 5000	–	–	C=CC(=O)N(C)C/C=C/c1ccc2ncnc(Nc3ccc(Oc4ccc5c(c4)ncn5C)c(C)c3)c2n1 [Example 23, (E)-N-methyl-N-(3-(4-((3-methyl-4-((1-methyl-1H-benzo[d]imidazol-5-yl)oxy)phenyl)amino)pyrido[3,2-d]pyrimidin-6-yl)aryl)acrylamide]
< 100	> 5000	–	–	Cc1cc(Nc2ncnc3ccc(/C=C/CNC(=O)/C=C/CN(C)C)nc23)ccc1Oc1ccc2c(c1)ncn2C [Example 40, (E)-4-(dimethylamino)-N-((E)-3-(4-((3-methyl-4-((1-methyl-1H-benzo[d]imidazol-5-yl)oxy)phenyl)amino)pyrido[3,2-d]pyrimidin-6-yl)allyl)but-2-enamide]
< 100	1000 to 5000	–	–	C=CC(=O)N(C)[C@@H](C)/C=C/c1ccc2ncnc(Nc3ccc(Oc4ccc5c(c4)ncn5C)c(C)c3)c2n1 [Example 51, (S,E)-N-methyl-N-(4-(4-((3-methyl-4-((1-methyl-1H-benzo[d]imidazol-5-yl)oxy)phenyl)amino)pyrido[3,2-d]pyrimidin-6-yl)but-3-en-2-yl)acrylamide]
< 100	100 to 1000	–	–	C=CC(=O)N1CC[C@@H]1C#Cc1ccc2ncnc(Nc3ccc(Oc4ccn5ncnc5c4)c(C)c3)c2c1 [Example 78, (R)-1-(2-((4-((4-([1,2,4]triazolo[1,5-a]pyridin-7-yloxy)-3-methylphenyl)amino)quinazolin-6-yl)ethynyl)azetidin-1-yl)prop-2-en-1-one]
100 to 1000	100 to 1000	–	–	C=CC(=O)N(C)CC#Cc1cc2c(Nc3ccc(Oc4ccn5ncnc5c4)c(C)c3)ncnc2cn1 [Example 67, N-(3-(4-((4-([1,2,4]triazolo[1,5-a]pyridin-7-yloxy)-3-methylphenyl)amino)pyrido[3,4-d]pyrimidin-6-yl)prop-2-yn-1-yl)-N-methylacrylamide]
100 to 1000	> 5000	–	–	C=CC(=O)N(C)CCCOc1ccc2ncnc(Nc3ccc(Oc4ccc5c(c4)ncn5C)c(C)c3)c2n1 [Example 9, N-methyl-N-(3-((4-((3-methyl-4-((1-methyl-1H-benzo[d]imidazol-5-yl)oxy)phenyl)amino)pyrido[3,2-d]pyrimidin-6-yl)oxy)propyl)acrylamide]
< 100	1000 to 5000	–	–	C=CC(=O)N(C)C/C=C/c1ccc2ncnc(Nc3ccc(Oc4ccc5c(c4)ncn5C)c(Cl)c3)c2n1 [Example 25, (E)-N-(3-(4-((3-chloro-4-((1-methyl-1H-benzo[d]imidazol-5-yl)oxy)phenyl)amino)pyrido[3,2-d]pyrimidin-6-yl)allyl)-N-methylacrylamide]
< 100	1000 to 5000	–	–	C=CC(=O)N1CCC(/C=C/c2ccc3ncnc(Nc4ccc(Oc5ccc6c(c5)ncn6C)c(C)c4)c3n2)C1 (stereo not drawn) [Example 29, (E)-1-(3-(2-(4-((3-methyl-4-((1-methyl-1H-benzo[d]imidazol-5-yl)oxy)phenyl)amino)pyrido[3,2-d]pyrimidin-6-yl)vinyl)pyrrolidin-1-yl)prop-2-en-1-one]
< 100	1000 to 5000	–	–	C=CC(=O)N1CC(/C=C/c2ccc3ncnc(Nc4ccc(Oc5cnc6c(c5)ncn6C)c(C)c4F)c3n2)C1 [Example 47]
< 100	> 5000	–	–	C=CC(=O)NC/C=C/c1ccc2ncnc(Nc3ccc(Oc4cnc5c(c4)ncn5C)c(C)c3)c2n1 [Example 34, (E)-N-(3-(4-((3-methyl-4-((3-methyl-3H-imidazo[4,5-b]pyridin-6-yl)oxy)phenyl)amino)pyrido[3,2-d]pyrimidin-6-yl)allyl)acrylamide]
–	–	< 100	1000 to 5000	(S)-1-(2-((4-((3-methyl-4-((1-methyl-1H-benzo[d]imidazol-5-yl)oxy)phenyl)amino)pyrido[3,2-d]pyrimidin-6-yl)ethynyl)pyrrolidin-1-yl)prop-2-en-1-one [Example 87]
< 100	100 to 1000	–	–	C=CC(=O)N(C)C/C=C/c1ccc2ncnc(Nc3ccc(Cc4ccn5ncnc5c4)c(C)c3)c2n1 [Example 56, (E)-N-(3-(4-((4-([1,2,4]triazolo[1,5-a]pyridin-7-ylmethyl)-3-methylphenyl)amino)pyrido[3,2-d]pyrimidin-6-yl)allyl)-N-methylacrylamide]
< 100	1000 to 5000	–	–	C=CC(=O)N(C)C/C=C/c1ccc2ncnc(Nc3ccc(Oc4ccc5c(c4)ncn5C)c(C)c3)c2c1 [Example 22]
< 100	1000 to 5000	–	–	Cc1cc(Nc2ncnc3ccc(/C=C/CNC(=O)/C=C/CN4CCCCC4)nc23)ccc1Oc1ccc2c(c1)ncn2C [Example 59, (E)-N-((E)-3-(4-((3-methyl-4-((1-methyl-1H-benzo[d]imidazol-5-yl)oxy)phenyl)amino)pyrido[3,2-d]pyrimidin-6-yl)allyl)-4-(piperidin-1-yl)but-2-enamide]
< 100	100 to 1000	–	–	C=CC(=O)N(C)C/C=C/c1ccc2ncnc(Nc3ccc(Oc4ccc5ocnc5c4)c(C)c3)c2n1 [Example 57, (E)-N-(3-(4-((4-(benzo[d]oxazol-5-yloxy)-3-methylphenyl)amino)pyrido[3,2-d]pyrimidin-6-yl)allyl)-N-methylacrylamide]
100 to 1000	1000 to 5000	–	–	C=CC(=O)N(C)CC#Cc1ccc2ncc(C#N)c(Nc3ccc(Oc4ccn5ncnc5c4)c(C)c3)c2c1 [Example 70, N-(3-(4-((4-([1,2,4]triazolo[1,5-a]pyridin-7-yloxy)-3-methylphenyl)amino)-3-cyanoquinolin-6-yl)prop-2-yn-1-yl)-N-methylacrylamide]

Molecule	GI50 (Ba/F3 HER2 A775insYVMA; Mus musculus, BaF3, 72 hours) [nM]	GI50 ([1]; Mus musculus, BaF3, 72 hours) [nM]	GI50 (Ba/F3 HER2 A775insYVMA; 72 hours) [nM]	GI50 ([1]; 72 hours) [nM]
C=CC(=O)NC/C=C/c1ccc2ncnc(Nc3ccc(Oc4ccc5c(c4)ncn5C)c(C)c3)c2n1 [Example 33, (E)-N-(3-(4-((3-methyl-4-((1-methyl-1H-benzo[d]imidazol-5-yl)oxy)phenyl)amino)pyrido[3,2-d]pyridin-6-yl)allyl)acrylamide]	< 100	1000 to 5000	–	–
